Here are results for three molecules from US20070292385A1, “Phospholipase Inhibitors Localized in the Gastrointestinal Lumen” (priority 2004, published 2007).

The subject of series [1] is PL A2. The conditions noted are these: cited from earlier work.
The target in series [2] is T1, Porcine PLA2 IB (Sus scrofa, UniProt P00592).
T1 construct: purchased
Kind of series: continuous fluorimetric assay for PLA2 activity (PPyrPG vesicles). The format is biochemical. The following applies: 37° C. From the text: A continuous fluorimetric assay for PLA2 activity described in the literature was used to determine IC (Leslie, C C and Gelb, M H (2004) Methods in Molecular Biology “Assaying phospholipase A2 activity”, 284: 229-242, Singer, A G, et al. (2002) Journal of Biological Chemistry “Interfacial kinetic and binding properties of the complete set of human and mouse groups I, II, V, X, and XII secreted phospholipases A2”, 277: 48535-48549, Bezzine, S, et al. (2000) Journal of Biological Chemistry “Exogenously added human group X secreted phospholipase A(2) but not the group IB, IIA, and V enzymes efficiently release arachidonic acid from adherent mammalian cells”, 275: 3179-3191) and references therein.
Generally, this assay used a phosphatidylglycerol (or phosphatidylmethanol) substrate with a pyrene fluorophore on the terminal end of the sn-2 fatty acyl chain. […] The effect of a given inhibitor and inhibitor concentration on any given phospholipase can be determined. […]
In this example, the procedure was performed as follows: • 1. […] The fluorescence was read using an excitation of 342 nm and an emission of 395 nm.
In this example, the IC50 was calculated using the BioDataFit 1.02 (Four Parameter Model) software package. […]

Series [3] can be described thus: pharmokinetic study, IV and oral. The following applies: for AUC(0-inf) / Cmax / Tmax / half-life: mouse, plasma; for half-life: read-out: t½ (converted). Format: in vivo, mice. The protocol: This example characterized ILY-4001 [2-(3-(2-amino-2-oxoacetyl)-1-(biphenyl-2-ylmethyl)-2-methyl-1H-indol-4-yloxy)acetic acid], alternatively referred to herein as methyl indoxam, with respect to activity, as determined by IC50 assay (Example 1B-1), with respect to cell absorbtion, as determined by in-vitro Caco-2 assay (Example 1B-2) and with respect to bioavailability, as determined using in-vivo mice studies (Example 1B-3).
Bioavailability was calculated as a ratio of AUC-oral/AUC-intravenous (IV). To determine this ratio, a first set of subject animals were given a measured intravenous (IV) dose of ILY-4001, followed by a determination of ILY-4001 levels in the blood at various time points after administration (e.g., 5 minutes through 24 hours). Another second set of animals was similarly dosed using oral administration, with blood levels of ILY-4001 determined at various time points after administration (e.g., 30 minutes through 24 hours). The level of ILY-4001 in systemic circulation were determined by generally accepted methods (for example as described in Evans, G., A Handbook of Bioanalysis and Drug Metabolism. Boca Raton, CRC Press (2004)). Specifically, […]/mass spectrometry/mass spectrometry (LC/MS/MS) analytical methods were used to quantitate plasma concentrations of ILY-4001 after oral and intravenous administration. Pharmacokinetic parameters that were measured include Cmax, AUC, tmax, t1/2, and F (bioavailability).
In this procedure, ILY-4001 was dosed at 3 mg/kg IV and 30 mg/kg oral. […] This indicated about a 72% level of non-absorption of ILY-4001 from the GI tract into systemic circulation.

Series [4] in a line: in-vivo study on high fat/high sucrose diabetogenic diet (Example 10). More on the design: species or system C57BL/6 mice. The conditions noted are these: for fasting glucose levels: low dose 25 mg/kg/day. The protocol: ILY-4001 (FIG. 5) was evaluated as a PLA2 IB inhibitor in a set of experiments using wild-type mice and genetically deficient PLA2 (−/−) mice (also referred to herein as PLA2 knock-out (KO) mice). In these experiments, wild-type and PLA2 (−/−) mice were maintained on a high fat/high sucrose diet, details of which are described below.
Briefly, four groups were set up, each having six mice. Three of the groups included six wild-type PLA2 (+/+) mice in each group (eighteen mice total), and one of the groups included six genetically deficient PLA2 (−/−) mice. One of the wild-type groups was used as a wild-type control group, and was not treated with ILY-4001. The other two wild-type groups were treated with ILY-4001—one group at a lower dose (indicated as “L” in Table 1) of 25 mg/kg/day, and the other at a higher dose (indicated as “H” in Table 1) of 90 mg/kg/day. The group comprising the PLA2 (−/−) mice was used as a positive control group.
The experimental protocol used in this study was as follows. The four groups of mice, including wild type and isogenic PLA2 (−/−) C57BL/J mice were acclimated for three days on a low fat/low carbohydrate diet. After the three day acclimation phase, the animals were fasted overnight and serum samples taken to establish baseline plasma cholesterol, triglyceride, and glucose levels, along with baseline body weight. The mice in each of the treatment groups were then fed a high fat/high sucrose diabetogenic diet (Research Diets D12331). 1000 g of the high fat/high sucrose D12331 diet was composed of casein (228 g), DL-methionine (2 g), maltodextrin 10 (170 g), sucrose (175 g), soybean oil (25 g), hydrogenated coconut oil (333.5 g), mineral mix S10001 (40 g), sodium bicarbonate (10.5 g), potassium citrate (4 g), vitamin mix V10001 (10 g), and choline bitartrate (2 g). This diet was supplemented with ILY-4001 treatments such that the average daily dose of the compound ingested by a 25 g mouse was: 0 mg/kg/day (wild-type control group and PLA2 (−/−) control group); 25 mg/kg/day (low-dose wild-type treatment group), or 90 mg/kg/day (high-dose wild-type treatment group). The animals were maintained on the high fat/high sucrose diet, with the designated ILY-4001 supplementation, for a period of ten weeks.
Body weight measurements were taken for all animals in all treatment and control groups at the beginning of the treatment period and at 4 weeks and 10 weeks after initiation of the study. (See Example 10A). Blood draws were also taken at the beginning of the treatment period (baseline) and at 4 weeks and 10 weeks after initiation of the study, in order to determine fasting glucose (See Example 10B). Cholesterol and triglyceride levels were determined from blood draws taken at the beginning of the treatment (baseline) and at ten weeks. (See Example 10C).

In series [5] the test system is Caco-2 monolayers. Kind of series: Caco-2 permeability study. The following applies: apical to basolateral. On the technique in general: Caco-2 monolayers are a common model of the intestinal barrier.
Series [6] deals with Caco-2 monolayers.
Setting [7] is: low and high doses (25 and 90 mg/kg/day), 10 weeks.

Like-named read-outs stand apart in the source and are kept apart here.

T1 sequence (P00592 23-146): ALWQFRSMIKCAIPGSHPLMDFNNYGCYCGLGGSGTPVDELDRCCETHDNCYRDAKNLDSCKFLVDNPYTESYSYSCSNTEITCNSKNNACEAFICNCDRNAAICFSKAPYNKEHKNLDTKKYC

On to `CCC1=C(CC(N)=O)c2cc(OCCCP(=O)(O)O)ccc2C1Nc1ccccc1` (stereo not shown), for which the IC50 (usually the concentration needed to halve the response being measured) in series [1] is recorded as “sub μM range”.
`Cc1c(C(=O)C(N)=O)c2c(OCC(=O)O)cccc2n1Cc1ccccc1-c1ccccc1` [ILY-4001, 2-(3-(2-amino-2-oxoacetyl)-1-(biphenyl-2-ylmethyl)-2-methyl-1H-indol-4-yloxy)acetic acid] gave an IC50 in series [2] of 0.062 µM. In series [3] (iv, 3 mg/kg), the AUC(0-inf) (in general, the area under the concentration-time curve extrapolated to infinity) was found to be 2.76 µg·h/mL; the Cmax (as a rule, the peak of the concentration-time curve) was 3.17 µg/mL; the Tmax (usually the time at which the peak concentration occurs) was 0.083 h; the half-life is 1.03 h. Besides, the AUC(0-t) in series [3] (mouse, plasma, iv, 3 mg/kg; read-out: AUC 0-24)) was found to be 2.79 µg·h/mL. In series [3] (oral, 30 mg/kg), the AUC(0-inf) is 5.73 µg·h/mL, the Cmax stood at 2.29 µg/mL, the Tmax was found to be 1 h and the half-life is 1.25 h. In addition, the AUC(0-t) in series [3] (mouse, plasma; oral, 30 mg/kg; read-out: AUC 0-24)) worked out at 5.95 µg·h/mL. Besides, the “body weight gain compared to wild-type control group” value in series [4] (25 mg/kg/d and 90 mg/kg/d in diet, week 4 and week 10) was “significantly reduced”. Further, in series [4] (setting [7]), the “plasma levels of cholesterol” value is recorded as “substantially reduced” and the “plasma levels of triglycerides” value is on record as “substantially reduced”. In addition, the fasting glucose levels entry in series [4] (week four) was “moderately beneficial effect”. Also, the fasting glucose levels entry in series [4] (week ten) is “beneficial effect was not observed”. Moreover, in series [5], the apparent permeability result is reported as “around 1.66×10^−7 cm/s”.
For the molecule Lucifer Yellow, in series [6], the apparent permeability entry is recorded as “around 2.82×10^−7+/−0.37×10^−7 cm/s”.
